No end group written: not given here.
Key:
NHK cells = assay: Comets test on UVB-irradiated NHK cells (DNA damage, Tail Moment); assay type: cell-based, human
Method: For this purpose, NHK cells were: • under condition a: cultured for 24 hours with the peptide compound of sequence SEQ ID NO: 3 at a concentration of 1% and 3%, and then irradiated with UVB radiation at 20 mJ/cm^2, in order to observe the protective effect of the peptide active ingredient on the cells; • under condition b: irradiated, in a first step, with UVB radiation at 20 mJ/cm^2, and then treated for 24 hours with said peptide compound at a concentration of 1% and 3%, in order to observe the repairing effect of the active ingredient on the cells.
The cells were then removed by trypsination from their carrier, and then centrifuged at 900 rpm for 5 minutes before being concentrated and counted.
A specific cell count (25,000 cells) was then incorporated into a 0.75% Low Melting agarose gel, and then deposited on a glass slide previously coated with 1% agarose. The slides were then immersed in a lysis solution for 1.5 hours at 4° C., and then in an alkaline solution for 20 minutes at 4° C. The cells were then lysed and the DNA denatured. The slides were immersed in an electrophoresis solution before applying an electric field (20 V-250 mA). The thus denatured DNA was subjected to migration within an agarose gel at 4° C. Applying a DNA fluorescent dye on the slides (2 μg/ml propidium iodide) allowed the DNA to be observed in the form of comets in those cases where it had been damaged.
Quantification software is used to determine the average Tail Moment applied to each condition being tested. This parameter provides information on the level of DNA damage: the higher it is, the greater the DNA damage.

pro/filaggrin = assay: Pro/filaggrin immunostaining in cultured human skin biopsies; assay type: cell-based; details: peptide at 1% or 3%, 24 hours and 72 hours, dose-dependent and increases with time
Method: Samples of human skin were cultured at the air/liquid interface. Under a first condition, the samples were treated with the 1% peptide SEQ ID NO: 1 for 24 hours and 72 hours. Under a second condition, the samples were treated with the same peptide but at a concentration of 3% for 24 hours and 72 hours.
These skin samples were thereafter fixed with formaldehyde and then incorporated in paraffin. Sections 2 to 3 μm in size were then made. Immunostaining was carried out after unmasking specific sites by incubation in pepsin. Immunostaining was then performed by means of a filaggrin-specific mouse monoclonal antibody (Tebu Santa Cruz), followed by a secondary antibody, coupled with a fluorescent marker. The skin sections were then examined using an epifluorescence microscope (Nikon® Eclipse E600 microscope).

caspase-14 [1] = assay: Caspase-14 expression by Western Blot in NHKs with or without caspase-14 siRNA; assay type: cell-based, human
Method: NHK cells were cultured in 6-well plates up to a confluence of 60% and then treated with 20 μL of 1%-peptide SEQ ID NO: 2. Then, 100 μL of a previously prepared mixture containing the siRNA of caspase-14 and the transfecting agent were carefully added dropwise, on a well per well basis. The cell culture plate was incubated at 37° C. and at 5% CO2 for 72 hours. The culture medium was renewed every 2 days. Four conditions were implemented: • condition 1: control containing no siRNA nor peptide active ingredient • condition 2: siRNA-transfected cells, containing no peptide active ingredient • condition 3: cells that are not transfected but treated with the peptide active ingredient • condition 4: cells transfected with siRNA, and treated with the peptide active ingredient
The quantification of caspase-14 expression is observed using the conventional immunoblotting technique (Western Blot) carried out by means of an anti-caspase-14 antibody and according to a conventional protocol. To analyze the compensation brought about by the peptide in the NHKs transfected with siRNA, a comparison was performed with respect to non-treated NHKs whose gene had not been extinguished by siRNA.

caspase-14 [2] = assay: Caspase-14 expression in normal human keratinocytes by immunofluorescence; assay type: cell-based; details: NHKs, peptide at 1% or 3%, 24 hours; dose-dependent, greater at 3% than at 1%
Method: Cultured normal human keratinocytes, NHKs, were treated with 1% or 3%-peptide SEQ ID NO: 2 for 24 hours. The cells were then washed, fixed with 3.7%-paraformaldehyde using 0.1%-triton in the presence of bovine serum albumin (BSA) (diluted to 1/100th). The cells were incubated in the presence of a caspase-14-specific mouse monoclonal antibody (BD Biosciences), and then of a secondary antibody, coupled with a fluorescent marker. The cells were then examined by means of an epifluorescence microscope (Nikon® Eclipse E600 microscope).

[3] = tested on: cyclobutane-pyrimidine dimers; assay: CPD immunostaining on human skin biopsies subjected to UVB radiation; assay type: cell-based; details: UVB 200 mJ/cm^2, then topical 1% or 3% solution for 24 hours; repair dose-dependent
Method: Human skin biopsies were cultured at the air/liquid interface. These biopsies were subjected to UVB radiation at 200 mJ/cm^2. After irradiation, under a first condition, a 1%-solution of peptide SEQ ID NO: 2 was applied topically to the biopsies for 24 hours. Under a second condition, a 3%-solution of peptide SEQ ID NO: 2 was applied topically for 24 hours. Control conditions are achieved by the topical application of a PBS solution after irradiation.
For staining the cyclobutane-pyrimidine dimers, the skin biopsies were incorporated into paraffin and histological 3 μm thick sections were made. The slides were deparaffinized, hydrated and subjected to immunostaining with an antibody directed against cyclobutane-pyrimidine dimers (MBL D194-1, mouse monoclonal), followed by a suitable secondary antibody (Invitrogen™ A21202), coupled with a fluorescent marker. The skin sections were then examined with an epifluorescence microscope (Nikon® Eclipse E 80i microscope).

In the case of “Asn-Arg-Ile-Gln-Ala-Cys-Arg-Gly-NH2 (NRIQACRG-NH2) [peptide SEQ ID NO: 3]”, the “Tail Moment decrease” value (NHK cells; condition a: 24 hours pretreatment at 1%, then UVB 20 mJ/cm^2, vs UVB control) is reported as 57%, the “Tail Moment decrease” value (NHK cells; condition a: 24 hours pretreatment at 3%, then UVB 20 mJ/cm^2, vs UVB control) is reported as 57% and the “Tail Moment decrease” value (NHK cells; condition b: UVB 20 mJ/cm^2, then 24 hours treatment at 1%) is reported as 31%. For the same substance, the “Tail Moment decrease” value (NHK cells; condition b: UVB 20 mJ/cm^2, then 24 hours treatment at 3%) was 58%.
With “Asp-Pro-Ile-Gln-Ala-Cys-Arg-Gly-NH2 (DPIQACRG-NH2) [peptide SEQ ID NO: 1]” the pro/filaggrin staining (pro/filaggrin) was “increase”.
With “Ile-Gln-Ala-Cys-Arg-Gly-NH2 (IQACRG-NH2) [peptide SEQ ID NO: 2]” the “increase in caspase-14 protein expression with respect to the control” value (caspase-14 [1]; non-transfected NHKs, 1% peptide, 72 hours (condition 3 vs condition 1)) was 20.9%, the “decrease in caspase-14 protein expression with respect to the control conditions” value (caspase-14 [1]; siRNA-transfected NHKs treated with 1% peptide, 72 hours (condition 4 vs condition 1)) was 14% and the “light intensity (caspase-14 fluorescence) with respect to the control conditions” value (caspase-14 [2]) was “increase”. The “CPD fluorescence compared with the control conditions with UVB radiation” value [3] was “much weaker fluorescence”.
